What was measured:
[1] = Part 1: dose escalation trial, gel once daily for two consecutive days, dose limiting toxicity based on local skin reactions; type: in vivo, human
Description: Local skin reactions (LSRs) occur sometimes in the treated area. Often LSRs are quantified by a scale evaluating the following types of skin reactions: erythema, flaking/scaling, crusting, swelling, vasiculation/postulation, and erosion/ulceration which are categorized into categories 0-4 depending on the severity of the reactions. The present invention utilizes data obtained from a previous dose escalation trial, wherein maximal tolerated doses were identified.
In the trial pre-defined grades of LSRs will constitute Dose Limiting Toxicity.
Dose Limiting toxicity (DLT) is defined one or more of the following LSRs: • crusting Grade 4 • Erosion/ulceration Grade 4 • vesiculation/postulation Grade 4 or
Two or more of the following LSRs: • Crusting Grade 3 • Swelling grade 4 • Erosion/ulceration Grade 3 • vesiculation/postulation Grade 3 or • other clinically relevant signs or symptoms observed, which the Investigator judges to be counted as a DLT. Maximum tolerated dose (MTD) is declared as dose level at which less than 4 subjects out of experience a DLT of cohort of 12 subjects.
Part 1 was a dose escalation study conducted with a once daily application of trial medication for two consecutive days and continued until the MTD was identified.
Dose escalation proceeded if the safety and tolerability data of the subject up to day 8 was reviewed and considered satisfactory. The treatment consisted of once daily treatment for 2 consecutive days. Up to 5 different doses may be investigated in cohorts of 1 subject. The number of subjects in each cohort depended on the number of observed DLTs. However, the MTD was always be confirmed in a cohort of 12 subjects. […] Part 2 is a study of the efficacy of the 0.1% dose identified in part 1 in a three day regimen.
Part 1: Trial medication, ingenol 3-(3,5-diethylisoxazole-4-carboxylate) gel, will be applied to the treatment area once daily for two consecutive days until the maximum tolerated dose has been reached for each formulation. Up to five different doses of active compound in gel may be investigated in cohorts 12 subjects. […]

[2] = tested on: actinic keratosis; test: Part 2: open-label trial, 0.1% gel once daily for three consecutive days on trunk (except chest) and extremities; type: in vivo, human
Description: The outcome for Part 2 is safety and efficacy in a once daily application for three consecutive days on the trunk (except chest) and extremities. The efficacy in treating of the AK will be measured as reduction in AK count in the treated area of lesions which are not considered hyperkeratotic/hypertrophic.
In parallel the efficacy in treating of the AK will be measured as reduction in AK count in the treated area of lesions which are considered hyperkeratotic/hypertrophic.
The reduction in AK count will be performed at week 4 and 8 no matter the type of lesion. Also complete clearance of AKs in the treated area which are not considered hyperkeratotic/hypertrophic at week 8 will be measured.
The trial medication applied is preferably a gel. The gel formulation comprises: isopropyl alcohol, hydroxyethyl cellulose, benzyl alcohol, citric acid monohydrate, sodium citrate dehydrate and water and active compound in a 0.1% concentration. For this particular trial, the dosing is two unit dose tubes daily, each containing 0.67 g.
To qualify for part 2 of the trial, the subjects must have 5-20 clinically visible and discrete AKs within a contiguous are of approximately 250 cm^2 area on the trunk (except chest) and extremities. In addition to the requirement of 5-20 clinically typical, visible and discrete AKs within the selected treatment area, subjects may also have visible and discrete hyperkeratotic/hypertrophic lesions in this area. The subjects will be treated with a dose of 0.1% as a once daily three consecutive days treatment and followed for 8 weeks.
The trial consists of an initial part, where 18 subjects will be treated on the trunk (except chest) and extremities. […] As this is a safety trial, it is considered justified to conduct this clinical trial as an open-label, uncontrolled trial. An early safety and tolerability evaluation will be performed following the 3 days treatment. If safety and tolerability is found acceptable by the Early Data Review Committee, and additional 44 subjects will be enrolled in order to expand safety observations and obtain an estimate of treatment efficacy.
LSRs are evaluated at all visits following visit 1. AK lesion counts are performed on Visit 2, 6 and 7.
tactile) assessment of the extent of photo-damage in the treatment area with respect to 1) fine wrinkling, 2) coarse wrinkling, 3) mottled pigmentation, 4) roughness, 5) sallowness, 6) skin laxity, and 7) telangiectasia. Severity for each of these characteristics will be on a 5-point scale: None (0), Mild (1), Moderate (2), Severe (3), Extreme (4).
At Visit 7 (Week 8) the Investigator will make an overall clinical (visual and tactile) assessment of the subject's photo-damage change from baseline in the treatment area (including an integrated assessment of fine wrinkling, coarse wrinkling, mottled pigmentation, roughness, sallowness, skin laxity, and telangiectasia based on the subject's appearance at the baseline visit).
At Visit 7 (Week 8), the subjects will complete a self-assessment questionnaire evaluating the change in the 1) overall appearance of the skin and 2) overall feel of the skin after treatment. The scoring will be on a 5-point scale: Much worsened, somewhat worsened, no change, somewhat improved, much improved.
The secondary response criteria will be analysed for the full analysis set and for the per protocol analysis set. The ratio of number of AK lesions at week 8 relative to baseline, excluding lesions identified at base line as hyperkeratotic/hypertrophic lesions, will be tabulated by treatment group. Separately for each treatment group, the rate and corresponding 95% confidence interval will be estimated from a negative binomial regression on the AK count at week 8 with the log baseline value as an offset variable. The same analysis will be performed for the subgroup of lesions identified as hyperkeratotic/hypertrophic at baseline. […]

[3] = tested on: dermal tumours; test: in vivo studies in mice, effects on dermal tumours
Description: The exact mechanism of action of ingenol 3-(3,5-diethylisoxazole-4-carboxylate) continues to be investigated, but it is believed that ingenol 3-(3,5-diethylisoxazole-4-carboxylate) has a dual mechanism of action inducing cell death as well as stimulation of immune response.

[4] = highest dose 0.1%, once daily for 2 consecutive days

CCc1noc(CC)c1C(=O)O[C@H]1C(C)=C[C@]23C(=O)[C@@H](C=C(CO)[C@@H](O)[C@]12O)[C@H]1[C@@H](C[C@H]3C)C1(C)C [ingenol 3-(3,5-diethylisoxazole-4-carboxylate)]
dose limiting toxicity (DLT) [1, 4]: no real DLT was identified
tolerability [1, 4]: well tolerated
tolerability with respect to LSRs and application site reaction ([1]; selected dose (0.1%), two days dosing regimen): well tolerated
side-effects ([2]; 0.1% gel, once daily three consecutive days): acceptable
reduction in AK count ([2]; 0.1% gel, once daily three consecutive days, approx. 250 cm^2 area, week 8, 62 patients): 59%
complete clearance ([2]; 0.1% gel, once daily three consecutive days, week 8): 23%
time at which side-effects maximize ([2]; 0.1% gel, once daily three consecutive days, rapid decline thereafter): 4 days
cosmetic outcome of the treatment ([2]; 0.1% gel, three day regimen): good
patients with photo damage improved ([2]; investigator assessment, fraction of patients): two-thirds
subjects reporting improvement in appearance and feel ([2]; self-assessment by subject): more than 70%
efficacy in eliminating dermal tumours, compared with ingenol mebutate [3]: more efficacious than ingenol mebutate

Source: patent publication US20170258769A1, “A Method for Topically Treating Actinic Keratosis on the Trunk (except chest) and Extremities with Ingenol 3-(3,5-diethylisoxazole-4-carboxylate)” (LEO Laboratories Limited, priority 2014, published 2017)
